Test results taken from PubChem BioAssay (NCI).
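These data come from cells grown in 96-well plates and exposed to compound for 48 hours at five concentrations. GI50 = concentration required for 50% inhibition of growth. TGI: concentration producing complete growth inhibition.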

Experiments:
Experiment in all cases: growth of human tumour cells (NCI), 48 h
[1] = tested on: M14 melanoma
[2] = tested on: SNB-19 CNS
[3] = tested on: SR leukemia
[4] = tested on: A498 renal
[5] = tested on: SK-MEL-2 melanoma
[6] = tested on: HOP-62 NSCLC
[7] = tested on: SN12C renal
[8] = tested on: HS 578T breast
[9] = tested on: HL-60(TB) leukemia
[10] = tested on: OVCAR-4 ovarian
[11] = tested on: SK-MEL-28 melanoma
[12] = tested on: 786-0 renal
[13] = tested on: COLO 205 colon
[14] = tested on: NCI-H226 lung
[15] = tested on: SF-539 CNS
[16] = tested on: KM12 colon
[17] = tested on: U251 CNS
[18] = tested on: SK-MEL-5 melanoma
[19] = tested on: CAKI-1 renal
[20] = tested on: NCI-H522 lung
[21] = tested on: NCI-H23 lung
[22] = tested on: LOX IMVI melanoma
[23] = tested on: HCT-116 colon
[24] = tested on: SF-268 CNS
[25] = tested on: HCC-2998 colon
[26] = tested on: UACC-62 melanoma
[27] = tested on: HOP-92 NSCLC
[28] = tested on: K-562 leukemia
[29] = tested on: TK-10 renal

SMILES: COCC(=O)NC/C=C/c1ccc2ncnc(Nc3ccc(Oc4ccc(C)nc4)c(C)c3)c2c1
- GI50 [1]: 11.4 µM
- TGI [1]: 31 µM
- GI50 [2]: 18.4 µM
- TGI [2]: > 100 µM
- GI50 [3]: 10.7 µM
- TGI [3]: 50.4 µM
- GI50 [4]: 4.13 µM
- TGI [4]: 32.6 µM
- GI50 [5]: 18.5 µM
- TGI [5]: 41.7 µM
- GI50 [6]: 22.4 µM
- TGI [6]: 71 µM
- GI50 [7]: 12 µM
- TGI [7]: 35.7 µM
- GI50 [8]: 17.2 µM
- TGI [8]: 56.1 µM
- GI50 [9]: 21.9 µM
- TGI [9]: 59 µM
- GI50 [10]: 4.83 µM
- TGI [10]: 31.1 µM
- GI50 [11]: 12.9 µM
- TGI [11]: 30.6 µM
- GI50 [12]: 15.1 µM
- TGI [12]: 42 µM
- GI50 [13]: 6 µM
- TGI [13]: 25.6 µM
- GI50 [14]: 14.8 µM
- TGI [14]: 69.3 µM
- GI50 [15]: 15.1 µM
- TGI [15]: 31.7 µM
- GI50 [16]: 18.7 µM
- TGI [16]: 53 µM
- GI50 [17]: 13.2 µM
- TGI [17]: 31.9 µM
- GI50 [18]: 3.26 µM
- TGI [18]: 13 µM
- GI50 [19]: 3.31 µM
- TGI [19]: 49.5 µM
- GI50 [20]: 3.4 µM
- TGI [20]: 25.8 µM
- GI50 [21]: 17.4 µM
- TGI [21]: 55.4 µM
- GI50 [22]: 15 µM
- TGI [22]: 33.8 µM
- GI50 [23]: 13.7 µM
- TGI [23]: 30.9 µM
- GI50 [24]: 15.7 µM
- TGI [24]: 50.9 µM
- GI50 [25]: 20.1 µM
- TGI [25]: 39.7 µM
- GI50 [26]: 10.6 µM
- TGI [26]: 34 µM
- GI50 [27]: 6.48 µM
- TGI [27]: 36.3 µM
- GI50 [28]: 17.8 µM
- TGI [28]: > 91.4 µM
- GI50 [29]: 7.52 µM
- TGI [29]: 53.9 µM
